Where two headings read alike, the source gives them in different places. Numbered stars: 1 amine (or outer) side, 2 acyl side, 3 side chain; on linkers, the order of the positions; unused ones are H or OH. Square brackets hold non-standard residues; d marks the D form. Side chains are listed from the residue outwards. Peptide text beside a SMILES is read from it. * marks the point of attachment. Decanoyl(10-(4-HOOC-PhO)) = O=C(O)c1ccc(OCCCCCCCCCC(=O)*)cc1; d(γGlu) = O=C(O)[C@@H](CCC(=O)[*:2])N[*:1]; γGlu = O=C(O)[C@H](CCC(=O)[*:2])N[*:1]; C14 diacid = O=C(O)CCCCCCCCCCCCC(=O)*; AEEA = NCCOCCOCC(=O)O; Aib = CC(C)(N)C(=O)O
Legend:
human GLP-1 receptor [1] = target: T1, human GLP-1 receptor (Homo sapiens, UniProt P43220); experiment: GLP-1 receptor binding: displacement of 125I-GLP-1 (SPA) at low and high albumin
T1 construct: expressed in transfected cells; membranes
T1 sequence (P43220 24-463): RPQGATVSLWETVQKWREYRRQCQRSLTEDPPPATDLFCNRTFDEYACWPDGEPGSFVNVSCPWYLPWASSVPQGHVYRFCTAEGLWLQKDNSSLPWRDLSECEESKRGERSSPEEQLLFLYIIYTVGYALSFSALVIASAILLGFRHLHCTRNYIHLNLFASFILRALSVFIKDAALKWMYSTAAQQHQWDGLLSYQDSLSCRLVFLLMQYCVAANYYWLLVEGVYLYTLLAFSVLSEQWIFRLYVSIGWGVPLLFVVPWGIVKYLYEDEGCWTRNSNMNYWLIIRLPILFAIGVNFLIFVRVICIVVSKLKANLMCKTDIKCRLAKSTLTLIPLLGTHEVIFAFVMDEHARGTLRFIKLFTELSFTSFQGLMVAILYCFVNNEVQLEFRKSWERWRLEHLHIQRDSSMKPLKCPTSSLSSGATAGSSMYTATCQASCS
Method in brief: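 Membranes from hamster cells stably transfected with the receptor, with WGA SPA beads and 0.06 nM [^125I]-GLP-1(7-36)NH2, incubated 120 min at 30 °C with shaking.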

human GLP-1 receptor [2] = target: T1, human GLP-1 receptor; experiment: In vitro potency: stimulation of cAMP formation (AlphaScreen cAMP Assay) in membranes expressing the human GLP-1 receptor; assay type: biochemical; conditions: membranes from BHK467-12A (tk-ts13) expressing the human GLP-1 receptor
Protocol: Purified plasma membranes from a stable transfected cell line, BHK467-12A (tk-ts13), expressing the human GLP-1 receptor were stimulated with the GLP-1 analogue or derivative in question, and the potency of cAMP production was measured using the AlphaScreen™ cAMP Assay Kit from Perkin Elmer Life Sciences. The basic principle of the AlphaScreen Assay is a competition between endogenous cAMP and exogenously added biotin-cAMP. The capture of cAMP is achieved by using a specific antibody conjugated to acceptor beads.
A stable transfected cell line and a high expressing clone were selected for screening. The cells were grown at 5% CO2 in DMEM, 5% FCS, 1% Pen/Strep (Penicillin/Streptomycin) and 0.5 mg/ml of the selection marker G418.
Cells at approximately 80% confluence were washed 2× with PBS and harvested with Versene (aqueous solution of the tetrasodium salt of ethylenediaminetetraacetic acid), centrifuged 5 min at 1000 rpm and the supernatant removed. The additional steps were all performed on ice. The cell pellet was homogenised by the Ultrathurax for 20-30 s in 10 ml of Buffer 1 (20 mM Na-HEPES, 10 mM EDTA, pH=7.4), centrifuged 15 min at 20,000 rpm and the pellet resuspended in 10 ml of Buffer 2 (20 mM Na-HEPES, 0.1 mM EDTA, pH=7.4). The suspension was homogenised for 20-30 s and centrifuged 15 min at 20,000 rpm. Suspension in Buffer 2, homogenisation and centrifugation was repeated once and the membranes were resuspended in Buffer 2. The protein concentration was determined and the membranes stored at −80° C. until use.
The final volume per well was 50 μl.
AlphaScreen cAMP Assay Kit from Perkin Elmer Life Sciences (cat. No: 6760625M); containing Anti-cAMP Acceptor beads (10 U/μl), Streptavidin Donor beads (10 U/μl) and Biotinylated-cAMP (133 U/μl).
cAMP standard (dilution factor in assay=5): cAMP Solution: 5 μL of a 5 mM cAMP-stock+495 μL AlphaScreen Buffer.
Membranes were prepared from hGLP-1/BHK 467-12A cells with a concentration of 6 μg/well corresponding to 0.6 mg/ml (the amount of membranes used pr. well may vary)
“No membranes”: Acceptor Beads (15 μg/ml final) in AlphaScreen buffer
“6 μg/well membranes”: membranes+Acceptor Beads (15 μg/ml final) in AlphaScreen buffer
An aliquot (10 μl) of “No membranes” was added to the cAMP standard (per well in duplicate wells) and the positive and negative controls
An aliquot (10 μl) of “6 μg/well membranes” was added to GLP-1 and analogues (per well in duplicate or triplicate wells)
Pos. Control: 10 μl “no membranes”+10 μl AlphaScreen Buffer
Neg. Control: 10 μl “no membranes”+10 μl cAMP Stock Solution (50 μM)
1. Make the AlphaScreen Buffer.
2. Dissolve and dilute the GLP-1/Analogues/cAMP standard in AlphaScreen Buffer.
4. Add the cAMP/GLP-1/Analogues to the plate: 10 μl per well.
5. Prepare membrane/Acceptor Beads solution and add this to the plates: 10 μl per well.
6. Add the Donor Beads: 30 μl per well.

[3] = Estimate of oral bioavailability: gut injection in rat (caprate), exposure in plasma; assay type: in vivo; conditions: injection in jejunum, 1000 uM in 55 mg/ml sodium caprate, plasma concentration (pM) at 30 min divided by dosing solution concentration (μM), mean n=4
Method in brief: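 Male Sprague Dawley rats (~240 g, n=4) received 100 μl of 1000 uM derivative in 55 mg/ml sodium caprate by catheter into proximal or mid jejunum. Tail-vein EDTA plasma was sampled up to 240 min. Peptide was quantified by two-antibody bead chemiluminescence immunoassay, giving mean concentration-time profiles (pmol/l).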

[4] = low albumin, 0.001% HSA, read-out: IC50/nM (low HSA)

With CC[C@H](C)[C@H](NC(=O)[C@H](Cc1ccccc1)NC(=O)[C@H](CCCCNC(=O)CC[C@H](NC(=O)COCCOCCNC(=O)COCCOCCNC(=O)CC[C@@H](NC(=O)CCCCCCCCCOc1ccc(C(=O)O)cc1)C(=O)O)C(=O)O)NC(=O)[C@H](CCCNC(=N)N)NC(=O)[C@@H](NC(=O)[C@H](C)NC(=O)[C@H](CCC(N)=O)NC(=O)CNC(=O)[C@H](CCC(=O)O)NC(=O)[C@H](CC(C)C)NC(=O)[C@H](Cc1ccc(O)cc1)NC(=O)[C@H](CO)NC(=O)[C@H](CO)NC(=O)[C@@H](NC(=O)[C@H](CC(=O)O)NC(=O)[C@H](CO)NC(=O)[C@@H](NC(=O)[C@H](Cc1ccccc1)NC(=O)[C@@H](NC(=O)CNC(=O)[C@H](CCC(=O)O)NC(=O)[C@H](C)NC(=O)[C@@H](N)Cc1c[nH]cn1)[C@@H](C)O)[C@@H](C)O)C(C)C)C(C)C)C(=O)N[C@@H](C)C(=O)N[C@@H](Cc1c[nH]c2ccccc12)C(=O)N[C@@H](CC(C)C)C(=O)N[C@H](C(=O)N[C@@H](CCC(N)=O)C(=O)NCC(=O)N[C@@H](CCCCNC(=O)CC[C@H](NC(=O)COCCOCCNC(=O)COCCOCCNC(=O)CC[C@@H](NC(=O)CCCCCCCCCOc1ccc(C(=O)O)cc1)C(=O)O)C(=O)O)C(=O)NCC(=O)O)C(C)C [Example 26] (H-HAEGTFTSDVSSYLEGQAVRK([γGlu-AEEA-AEEA-d(γGlu)-Decanoyl(10-(4-HOOC-PhO))])FIAWLVQGK([γGlu-AEEA-AEEA-d(γGlu)-Decanoyl(10-(4-HOOC-PhO))])G-OH; N-terminus and C-terminus assumed) the IC50 (human GLP-1 receptor [1]; [4]) was 0.38 nM and the EC50 (human GLP-1 receptor [2]) was 0.2 nM.

In the case of CC[C@H](C)[C@H](NC(=O)[C@H](Cc1ccccc1)NC(=O)[C@H](CCCCNC(=O)COCCOCCNC(=O)COCCOCCNC(=O)CC[C@H](NC(=O)CCCCCCCCCOc1ccc(C(=O)O)cc1)C(=O)O)NC(=O)[C@H](CCCNC(=N)N)NC(=O)[C@H](C)NC(=O)[C@H](CCCCNC(=O)COCCOCCNC(=O)COCCOCCNC(=O)CC[C@H](NC(=O)CCCCCCCCCOc1ccc(C(=O)O)cc1)C(=O)O)NC(=O)[C@H](CCC(N)=O)NC(=O)[C@H](CCC(=O)O)NC(=O)[C@H](CCC(=O)O)NC(=O)[C@H](CC(C)C)NC(=O)[C@H](Cc1ccc(O)cc1)NC(=O)[C@H](CO)NC(=O)[C@H](CO)NC(=O)[C@@H](NC(=O)[C@H](CC(=O)O)NC(=O)[C@H](CO)NC(=O)[C@@H](NC(=O)[C@H](Cc1ccccc1)NC(=O)[C@@H](NC(=O)CNC(=O)[C@H](CCC(=O)O)NC(=O)[C@H](C)NC(=O)[C@@H](N)Cc1c[nH]cn1)[C@@H](C)O)[C@@H](C)O)C(C)C)C(=O)N[C@@H](C)C(=O)N[C@@H](Cc1c[nH]cn1)C(=O)N[C@@H](CC(C)C)C(=O)N[C@H](C(=O)NCC(=O)O)C(C)C [Example 25, N^ε24-[2-[2-[2-[[2-[2-[2-[[(4S)-4-carboxy-4-[10-(4-carboxyphenoxy)decanoylamino]butanoyl]amino]ethoxy]ethoxy]acetyl]amino]ethoxy]ethoxy]acetyl], N^ε27-[2-[2-[2-[[2-[2-[2-[[(4S)-4-carboxy-4-[10-(4-carboxyphenoxy)decanoylamino]butanoyl]amino]ethoxy]ethoxy]acetyl]amino]ethoxy]ethoxy]acetyl]-[Glu^22,Lys^24,Arg^26,Lys^27,His^31,Gly^34]-GLP-1-(7-34)-peptide] (H-HAEGTFTSDVSSYLEEQK([AEEA-AEEA-γGlu-Decanoyl(10-(4-HOOC-PhO))])ARK([AEEA-AEEA-γGlu-Decanoyl(10-(4-HOOC-PhO))])FIAHLVG-OH; N-terminus and C-terminus assumed), the EC50 (human GLP-1 receptor [2]) is reported as 0.38 nM.

For CC[C@H](C)[C@H](NC(=O)[C@H](Cc1ccccc1)NC(=O)[C@H](CCCCNC(=O)CC[C@H](NC(=O)COCCOCCNC(=O)COCCOCCNC(=O)CCCCCCCCCCCCC(=O)O)C(=O)O)NC(=O)[C@H](CCCNC(=N)N)NC(=O)[C@@H](NC(=O)[C@H](C)NC(=O)[C@H](CCC(N)=O)NC(=O)[C@H](CCCCNC(=O)CC[C@H](NC(=O)COCCOCCNC(=O)COCCOCCNC(=O)CCCCCCCCCCCCC(=O)O)C(=O)O)NC(=O)[C@H](CCC(=O)O)NC(=O)[C@H](CC(C)C)NC(=O)[C@H](Cc1ccc(O)cc1)NC(=O)[C@H](CO)NC(=O)[C@H](CO)NC(=O)[C@@H](NC(=O)[C@H](CC(=O)O)NC(=O)[C@H](CO)NC(=O)[C@@H](NC(=O)[C@H](Cc1ccccc1)NC(=O)[C@@H](NC(=O)CNC(=O)[C@H](CCC(=O)O)NC(=O)[C@H](C)NC(=O)[C@@H](N)Cc1c[nH]cn1)[C@@H](C)O)[C@@H](C)O)C(C)C)C(C)C)C(=O)N[C@@H](CCC(=O)O)C(=O)N[C@@H](Cc1c[nH]c2ccccc12)C(=O)N[C@@H](CC(C)C)C(=O)N[C@H](C(=O)N[C@@H](CCC(N)=O)C(=O)NCC(=O)N[C@@H](CCCNC(=N)N)C(=O)NCC(=O)O)C(C)C [Example 20, N^ε22-[(4S)-4-carboxy-4-[[2-[2-[2-[[2-[2-[2-(13-carboxytridecanoylamino)ethoxy]ethoxy]acetyl]amino]ethoxy]ethoxy]acetyl]amino]butanoyl], N^ε27-[(4S)-4-carboxy-4-[[2-[2-[2-[[2-[2-[2-(13-carboxytridecanoylamino)ethoxy]ethoxy]acetyl]amino]ethoxy]ethoxy]acetyl]amino]butanoyl]-_[Lys^22,Val^25TArg^26,Lys^27,Glu^30,Gln^34]-GLP-1-(7-37)-peptide] (H-HAEGTFTSDVSSYLEK([γGlu-AEEA-AEEA-C14 diacid])QAVRK([γGlu-AEEA-AEEA-C14 diacid])FIEWLVQGRG-OH; N-terminus and C-terminus assumed), the IC50 (human GLP-1 receptor [1]; [4]) was 0.19 nM and the “Dose-corrected exposure at 30 min” value [3] was 123.

In the case of CC[C@H](C)[C@H](NC(=O)[C@H](Cc1ccccc1)NC(=O)[C@H](CCCCNC(=O)COCCOCCNC(=O)COCCOCCNC(=O)CC[C@H](NC(=O)CCCCCCCCCCCCC(=O)O)C(=O)O)NC(=O)[C@H](CCCNC(=N)N)NC(=O)[C@@H](NC(=O)[C@H](C)NC(=O)[C@H](CCC(N)=O)NC(=O)CNC(=O)[C@H](CCC(=O)O)NC(=O)[C@H](CC(C)C)NC(=O)[C@H](Cc1ccc(O)cc1)NC(=O)[C@H](CO)NC(=O)[C@H](CO)NC(=O)[C@@H](NC(=O)[C@H](CC(=O)O)NC(=O)[C@H](CO)NC(=O)[C@@H](NC(=O)[C@H](Cc1ccccc1)NC(=O)[C@@H](NC(=O)CNC(=O)[C@H](CCC(=O)O)NC(=O)C(C)(C)NC(=O)[C@@H](N)Cc1c[nH]cn1)[C@@H](C)O)[C@@H](C)O)C(C)C)C(C)C)C(=O)N[C@@H](C)C(=O)N[C@@H](Cc1c[nH]cn1)C(=O)N[C@@H](CC(C)C)C(=O)N[C@H](C(=O)N[C@@H](CCC(N)=O)C(=O)NCC(=O)N[C@@H](CCCNC(=N)N)C(=O)N[C@@H](CCCCNC(=O)COCCOCCNC(=O)COCCOCCNC(=O)CC[C@H](NC(=O)CCCCCCCCCCCCC(=O)O)C(=O)O)C(=O)O)C(C)C [Example 15, N^ε27-[2-[2-[2-[[2-[2-[2-[[(4S)-4-carboxy-4-(13-carboxytridecanoylamino)butanoyl]amino]ethoxy]ethoxy]acetyl]amino]ethoxy]ethoxy]acetyl], N^ε37-[2-[2-[2-[[2-[2-[2-[[(4S)-4-carboxy-4-(13-carboxytridecanoylamino)butanoyl]amino]ethoxy]ethoxy]acetyl]amino]ethoxy]ethoxy]acetyl]-[Aib^8,Val^25,Arg^26,Lys^27,His^31,Gln^34,Lys^37]-GLP-1-(7-37)-peptide] (H-H[Aib]EGTFTSDVSSYLEGQAVRK([AEEA-AEEA-γGlu-C14 diacid])FIAHLVQGRK([AEEA-AEEA-γGlu-C14 diacid])-OH), the “Ratio [(IC50/nM) high HSA]/[(IC50/nM) low HSA]” value (human GLP-1 receptor [1]; 2.0% HSA vs 0.001% HSA) is reported as 155, the IC50 (human GLP-1 receptor [1]; high albumin, 2.0% HSA, read-out: IC50/nM (high HSA)) is reported as 29 nM and the IC50 (human GLP-1 receptor [1]; [4]) is reported as 0.19 nM. The “Dose-corrected exposure at 30 min” value [3] was 98.

From US11117947B2, “Double-acylated GLP-1 derivatives” (Novo Nordisk A/S, priority 2011, dated 2021)
